Measurements: US20200123208A1, “PEPTIDES AND NEMATICIDAL COMPOSITIONS” (priority 2017, published 2020)

Experiments:
Format in all cases: in vivo
[1] = test system: Meloidogyne incognita J2s; assay: Tomato invasion assay, M. incognita J2s; conditions: 100 μM uNLP, 24 h, tomato seedlings, normalised to negative control
Protocol: (§1) Predicted uNLPs from both M. incognita and G. pallida were synthesised by EZBiolab and dissolved into pH adjusted ddH2O to make a 5 mM stock which was aliquoted and stored at −20° C. J2s of both M. incognita and G. pallida were incubated for 24 hours in 200 μl of each peptide in a 24 well plate (SPL Lifesciences, South Korea) at a defined concentration.
(§2) Tomato seeds were sterilised with 2.5% NaOCl for 15 minutes, washed 5 times in ddH2O and germinated on 0.5% Murashige and Skoog plates at 23° C. […] Invasion assays were performed by mixing 500 pre-treated M. incognita or G. pallida J2s with agar slurry and a single tomato seedling (2 days post germination) in a 6 well plate. Assays were left at 23° C. for 24 hours in the case of M. incognita and at 18° C. for 24 hours in the case of G. pallida under a 16 hour light and 8 hour darkness cycle. Seedlings were stained using acid fuschin [69] and the number of nematodes within the roots counted.

[2] = test system: Meloidogyne incognita infective stage juveniles (J2s); assay: Chemosensory (chemotaxis) assay towards root exudate, M. incognita J2s; conditions: M. incognita J2s, 100 μM uNLP, 24 h; mean+/-SEM
Protocol: as §1
(§3) A 60 mm Petri dish was divided into two segments, a positive and a negative side, with a 0.5 cm ‘dead zone’ either side of the centre point. The petri dish was filled with 15 ml of 0.25% w/v agar which was allowed to solidify. 3 ml of 0.25% w/v agar slurry in spring water (pH 7, agitated with a magnetic stirrer for several hours to give a smooth consistency) was added to the petri dish and spread evenly over the surface. Root diffusate (attractant) and water only (control) 0.25% agar plugs were embedded in the agar slurry, either side of the assay arena. Root diffusate was collected from 10 tomato plants, aged 3-6 weeks in 1 litre pots, by pouring 500 ml of ddH2O through the soil three times. Diffusate from each plant was combined, filter sterilised and stored at 4° C. for a maximum of 1 month. Root diffusate agar plugs were made by melting 1.25% agar in ddH2O, cooling to 50° C. before mixing with 4 parts of root diffusate. The agar was then allowed to solidify at room temperature. 100 uNLP pre-treated M. incognita or G. pallida J2s were added by pipette to the centre of the plate. J2s which moved out of the ‘dead zone’ after 3 hours were counted and their location (+/−) scored. The distribution of J2s were used to create a chemotaxis index for each plate, which formed one replicate, a total of 10 replicates where completed for each uNLP treatment.

Globodera pallida J2s [3] = assay: Serotonin-induced stylet thrusting assay, G. pallida J2s; conditions: 100 μM uNLP, 24 h, 2 mM serotonin
Protocol: as §1
(§4) Stylet thrusting assays where performed by incubating 100 M. incognita or G. pallida J2s for 15 minute in 5 mM or 2 mM serotonin (Sigma Aldrich, USA), respectively. J2s were placed on a glass slide and stylet thrusts were counted for randomly selected J2s, for 1 minute each. Counting took place for a maximum of 15 minutes. Longer incubations yielded inconsistent results. At least 30 J2s were counted for each neuropeptide treatment.

[4] = test system: Globodera pallida infective stage juveniles (J2s); assay: Chemosensory (chemotaxis) assay towards root exudate, G. pallida J2s; conditions: 100 μM uNLP, 24 h, mean+/-SEM
Protocol: as §1, §3

[5] = test system: Meloidogyne incognita J2s; assay: Serotonin-induced stylet thrusting assay, M. incognita J2s; conditions: 100 μM uNLP, 24 h, 5 mM serotonin
Protocol: as §1, §4

Globodera pallida J2s [6] = assay: Tomato invasion assay, G. pallida J2s; conditions: G. pallida J2s, 100 μM uNLP, 24 h; tomato seedlings
Protocol: as §1, §2

Sequence: FAPRQFAFA [Mi-NLP-18a, predicted unamidated NLP of Meloidogyne incognita]
- host invasion compared to controls [1]: 25.88%+/−8.695
- chemotaxis index (Cl) towards root exudate [2]: −0.1353+/−0.1129

Sequence: SFDSFTGSGFTGLD [Gp-NLP-15c, predicted unamidated NLP of Globodera pallida]
- serotonergic-induced stylet thrusting relative to control groups (Globodera pallida J2s [3]): 56.07%+/−9.441
- chemotaxis index (Cl) towards root exudate [4]: −0.227+/−0.0776

Sequence: GGARPFYGGGYMDGTW [Gp-NLP-21f, predicted unamidated NLP of Globodera pallida]
- chemotaxis index (Cl) towards root exudate [4]: 0.1456+/−0.1232

Sequence: AFDSFAGNGFTGFD [Mi-NLP-15f, predicted unamidated NLP of Meloidogyne incognita]
- rate of serotonergic-induced stylet thrusting compared with controls [5]: 75.18%+/−9.199
- chemotaxis index (Cl) towards root exudate [2]: −0.05+/−0.3547

Sequence: SFDSLTGPGFTGLDT [Gp-NLP-15a, predicted unamidated NLP of Globodera pallida]
- chemotaxis index (Cl) towards root exudate [4]: −0.1451 +/−0.221

Sequence: AGGRYFMRHFDDSPFAGWMA [Gp-NLP-21g, predicted unamidated NLP of Globodera pallida]
- host invasion relative to controls (Globodera pallida J2s [6]): 214.8%+/−30.31
- chemotaxis index (Cl) towards root exudate [4]: −0.01357+/−0.1854

Sequence: AFDLFTGPGFTGMD [Gp-NLP-15h, predicted unamidated NLP of Globodera pallida]
- chemotaxis index (Cl) towards root exudate [4]: −0.06784+/−0.1415

Sequence: ALDLMEGDGFGGGFD [Mi-NLP-14b, predicted unamidated NLP of Meloidogyne incognita]
- chemotaxis index (Cl) towards root exudate [2]: −0.1155+/−0.1472

Sequence: SSQFGGENSFARFAFA [Mi-NLP-18e, predicted unamidated NLP of Meloidogyne incognita]
- host invasion compared to controls [1]: 46.49%+/−7.391

Sequence: GGTRAFNFFVSDALPSSYE [Gp-NLP-21c, predicted unamidated NLP of Globodera pallida]
- host invasion relative to controls (Globodera pallida J2s [6]): 14.07%+/−4.655

Sequence: AFDSFTGPGFTGMD [Gp-NLP-15g, predicted unamidated NLP of Globodera pallida]
- chemotaxis index (Cl) towards root exudate [4]: −0.2208 +/−0.1568

Sequence: SGIQTFRDDYDEKQAGEL [Gp-NLP-21d, predicted unamidated NLP of Globodera pallida]
- host invasion relative to controls (Globodera pallida J2s [6]): 2.01%+/−1.545

Sequence: SFGDYPFGSRTFAFA [Mi-NLP-18c, predicted unamidated NLP of Meloidogyne incognita]
- rate of serotonergic-induced stylet thrusting compared with controls [5]: 175.5%+/−20.72

Sequence: AAENFDENNDIN [Mi-NLP-18d, predicted unamidated NLP of Meloidogyne incognita]
- rate of serotonergic-induced stylet thrusting compared with controls [5]: 147.7%+/−16.05
- host invasion compared to controls [1]: 34.21%+/−12

Sequence: GGARAFNGAEETLLNVANLA [Gp-NLP-21i, predicted unamidated NLP of Globodera pallida]
- serotonergic-induced stylet thrusting relative to control groups (Globodera pallida J2s [3]): 117.7%+/−4.497
- chemotaxis index (Cl) towards root exudate [4]: −0.1733 +/−0.02667

Sequence: FNDDELSSLPFNFEYFPSLDTH [Mi-NLP-8b, predicted unamidated NLP of Meloidogyne incognita]
- host invasion compared to controls [1]: 61.38%+/−11.56

Sequence: GGARAFNFFAPPDE [Gp-NLP-21a, predicted unamidated NLP of Globodera pallida]
- host invasion relative to controls (Globodera pallida J2s [6]): 178.9%+/−48.52

Sequence: ALDILESDDFGGF [Gp-NLP-14a, predicted unamidated NLP of Globodera pallida]
- chemotaxis index (Cl) towards root exudate [4]: −0.3765+/−0.1039

Sequence: GGARAFFGDADGPFNSASYWAP [Gp-NLP-21h, predicted unamidated NLP of Globodera pallida]
- serotonergic-induced stylet thrusting relative to control groups (Globodera pallida J2s [3]): 116.8%+/−4.876
- chemotaxis index (Cl) towards root exudate [4]: −0.01564+/−0.08072

Sequence: SFDSFVGKGFTGMD [Mi-NLP-15c, predicted unamidated NLP of Meloidogyne incognita]
- chemotaxis index (Cl) towards root exudate [2]: −0.359+/−0.277

Sequence: GGARTFLVGE [Mi-NLP-9b, predicted unamidated NLP of Meloidogyne incognita]
- chemotaxis index (Cl) towards root exudate [2]: −0.07417+/−0.154

Sequence: SAFDSFVGRGFTGMD [Mi-NLP-15e, predicted unamidated NLP of Meloidogyne incognita]
- host invasion compared to controls [1]: 38.71%+/−5.963
- chemotaxis index (Cl) towards root exudate [2]: −0.01767+/−0.09428

Sequence: ALDMMEGDDFIGL [Mi-NLP-14c, predicted unamidated NLP of Meloidogyne incognita]
- rate of serotonergic-induced stylet thrusting compared with controls [5]: 134.7%+/−19.51
- host invasion compared to controls [1]: 20.96%+/−11.12

Sequence: GGARPFYGFFGGGEGTW [Mi-NLP-9e, predicted unamidated NLP of Meloidogyne incognita]
- host invasion compared to controls [1]: 48.68%+/−10.87

Sequence: AFDRLDNSFMLL [Mi-NLP-8d, predicted unamidated NLP of Meloidogyne incognita]
- host invasion compared to controls [1]: 29.31%+/−12.57

Sequence: AGGRLFRMVDLPDGDDFVPEG [Gp-NLP-21e, predicted unamidated NLP of Globodera pallida]
- chemotaxis index (Cl) towards root exudate [4]: −0.3804+/−0.2762

Sequence: GMRNFAFA [Mi-NLP-18b, predicted unamidated NLP of Meloidogyne incognita]
- rate of serotonergic-induced stylet thrusting compared with controls [5]: 146.6%+/−7.609
- host invasion compared to controls [1]: 47.81%+/−6.008

Sequence: ALDMLEGDDFIGMQ [Mi-NLP-14a, predicted unamidated NLP of Meloidogyne incognita]
- rate of serotonergic-induced stylet thrusting compared with controls [5]: 61.6%+/−7.86
- host invasion compared to controls [1]: 44.61%+/−12.25

Sequence: ALDILDGDDFTGFS [Gp-NLP-14e, predicted unamidated NLP of Globodera pallida]
- chemotaxis index (Cl) towards root exudate [4]: −0.0641+/−0.2329

Sequence: AGARAFQRPDFDDASYEL [Mi-NLP-9a, predicted unamidated NLP of Meloidogyne incognita]
- host invasion compared to controls [1]: 45.59%+/−22.97

Sequence: GGARAFNFFAPDE [Gp-NLP-21b, predicted unamidated NLP of Globodera pallida]
- host invasion relative to controls (Globodera pallida J2s [6]): 6.897%+/−3.855
- chemotaxis index (Cl) towards root exudate [4]: −0.117 +/−0.1936

Sequence: SSLASGRIGFRPA [Mi-NLP-2, predicted unamidated NLP of Meloidogyne incognita]
- rate of serotonergic-induced stylet thrusting compared with controls [5]: 164.4%+/−20.3

Sequence: AFDRLDVSPFDFDAMT [Mi-NLP-8a, predicted unamidated NLP of Meloidogyne incognita]
- rate of serotonergic-induced stylet thrusting compared with controls [5]: 126.1%+/−9.278
- chemotaxis index (Cl) towards root exudate [2]: 0.018+/−0.3438

Sequence: AFDSFGTPGFTGFD [Mi-NLP-15a, predicted unamidated NLP of Meloidogyne incognita]
- chemotaxis index (Cl) towards root exudate [2]: −0.01067+/−0.06497

Sequence: GGARAFAKLEE [Mi-NLP-9c, predicted unamidated NLP of Meloidogyne incognita]
- rate of serotonergic-induced stylet thrusting compared with controls [5]: 143.2%+/−9.878
